Laboratory results: PMC6110851, “An Optimized MicroPET Imaging Method for the Distribution and Synergies of Natural Products” (Frontiers in Pharmacology, 2018)

Experiments:
[1] = MicroPET biodistribution of [^18F]-GA in mice; assay type: in vivo; conditions: for time to peak in organ: after injection
Procedure: The mice were grouped by weight and housed in cages of the climate control room (25°C), with a photoperiod 12:12-h. During feeding, mice were free to access food and water. Mice were fasted for 24 h before the experiment. The mice were anesthetized with 4% isoflurane while preparing for scanning ([Constantinescu et al., 2013b]; [Cui et al., 2017]). Eighteen healthy male Kunming mice, weighing 20 ± 2 g, were divided into three groups, which were control group, once-administered (OA) group and long-term administration (LA) group. In the OA group, 1 h before the administration of [^18F]-GA, the mice were orally treated with PG polysaccharides. In the LA group, the mice were orally given the PG polysaccharides for 7 days, but not before the administration of [^18F]-GA.
Rice received a tail vein injection (8.67 ± 2.14 MBq/μg) of [^18F]-GA and placed in the scanner bed and mouse-imaging room immediately ([Constantinescu et al., 2013b]; [O’Doherty et al., 2017]). Firstly, 2 h PET scanning was performed using an Inveon-dedicated PET scanner. The average delay between injection and starting of PET scanning was 3.5 min. Rice were maintained stable under 4% isoflurane anesthesia throughout scanning. The PET list-mode data were dynamically classified into 23 3D sinograms of span and three ring difference. After Fourier recombination, the data were reconstructed using a 2D ordered-subset expectation maximization algorithm. Random events were excluded before reconstruction. The response of detector is normalized using a component-based approach. All dynamic images were corrected for radioactive decay automatically. The PET images were reconstructed by a cone beam algorithm into 480 × 480 × 632 image arrays. After the reconstruction, images were spatially transformed to match the PET images ([Constantinescu et al., 2013a],[b]).
The reconstruction of the image was performed using the PMOD software (PMOD Technologies). The 3D volumes of interest (VOIs) were drawn manually of the following organs: brain, heart, liver, lungs, kidneys, cortical bone, and gallbladder. The organs were carefully identified and VOIs were drawn as irregular contours on high-resolution PET images obtained from each mouse ([Constantinescu et al., 2013b]; [Garg et al., 2017]). The size of each VOI was less than the actual size of each organ to minimize the effects of PET on adjacent organ spills. The VOIs drawing was verified by a second operator. The VOIs of cortical bone were generated by first using PET image to depict the entire femur bone ([Constantinescu et al., 2013b]). The VOI was transferred to a dynamic PET image and the mean time-activity curve (TAC) of the decay correction was extracted for each target organ ([Constantinescu et al., 2013b]).

[2] = Safety evaluation during the MicroPET experiment (vital signs, electrocardiograms); assay type: in vivo, mice
[3] = mice, tail vein injection, Time(s) 60
[4] = mice, tail vein injection, Time(s) 180
[5] = mice, tail vein injection, Time(s) 300
[6] = mice, tail vein injection, Time(s) 420
[7] = mice, tail vein injection, Time(s) 660
[8] = mice, tail vein injection, Time(s) 780
[9] = mice, tail vein injection, Time(s) 900
[10] = mice, tail vein injection, Time(s) 1020
[11] = mice, tail vein injection, Time(s) 1140
[12] = mice, tail vein injection, Time(s) 1350
[13] = mice, tail vein injection, Time(s) 1650
[14] = mice, tail vein injection, Time(s) 1950
[15] = mice, tail vein injection, Time(s) 2250
[16] = mice, tail vein injection, Time(s) 2700
[17] = mice, tail vein injection, Time(s) 3300
[18] = mice, tail vein injection, Time(s) 3900
[19] = mice, tail vein injection, Time(s) 4500
[20] = mice, tail vein injection, Time(s) 5100
[21] = mice, tail vein injection, Time(s) 5700
[22] = mice, tail vein injection, Time(s) 6300
[23] = mice, tail vein injection, Time(s) 6900

organ of highest uptake ([1]; all mice): highest uptake was found in the liver
time to peak in organ ([1]; gallbladder, mice, maintained on the peak): 30 min
time to peak in organ ([1]; heart, lung, and kidney, mice): immediately reached a peak
time to peak in organ ([1]; liver, mice): 7 min
brain concentrations ([1]; mice, MicroPET 3-130 min): consistently low
route of excretion of radioactivity ([1]; mice, radiotracer found in the gallbladder): excreted via the biliary
Organs (%ID/g) Brain [1, 3]: 1.19 %ID/g
Organs (%ID/g) Gallbladder [1, 3]: 11.19 %ID/g
Organs (%ID/g) Heart [1, 3]: 12.13 %ID/g
Organs (%ID/g) Kidney [1, 3]: 9.67 %ID/g
Organs (%ID/g) Liver [1, 3]: 13.03 %ID/g
Organs (%ID/g) Brain [1, 4]: 0.79 %ID/g
Organs (%ID/g) Gallbladder [1, 4]: 14.59 %ID/g
Organs (%ID/g) Heart [1, 4]: 6.52 %ID/g
Organs (%ID/g) Kidney [1, 4]: 8.98 %ID/g
Organs (%ID/g) Liver [1, 4]: 17.00 %ID/g
Organs (%ID/g) Brain [1, 5]: 0.73 %ID/g
Organs (%ID/g) Gallbladder [1, 5]: 19.88 %ID/g
Organs (%ID/g) Heart [1, 5]: 4.75 %ID/g
Organs (%ID/g) Kidney [1, 5]: 7.13 %ID/g
Organs (%ID/g) Liver [1, 5]: 16.13 %ID/g
Organs (%ID/g) Heart [1, 6]: 4.07 %ID/g
Organs (%ID/g) Kidney [1, 6]: 6.26 %ID/g
Organs (%ID/g) Liver [1, 6]: 14.94 %ID/g
Organs (%ID/g) Brain [1, 7]: 0.58 %ID/g
Organs (%ID/g) Gallbladder [1, 7]: 26.93 %ID/g
Organs (%ID/g) Heart [1, 7]: 3.50 %ID/g
Organs (%ID/g) Kidney [1, 7]: 5.00 %ID/g
Organs (%ID/g) Liver [1, 7]: 12.33 %ID/g
Organs (%ID/g) Lung [1, 7]: 2.45 %ID/g
Organs (%ID/g) Brain [1, 8]: 0.61 %ID/g
Organs (%ID/g) Gallbladder [1, 8]: 29.01 %ID/g
Organs (%ID/g) Heart [1, 8]: 3.33 %ID/g
Organs (%ID/g) Kidney [1, 8]: 4.73 %ID/g
Organs (%ID/g) Liver [1, 8]: 11.32 %ID/g
Organs (%ID/g) Brain [1, 9]: 0.54 %ID/g
Organs (%ID/g) Gallbladder [1, 9]: 30.51 %ID/g
Organs (%ID/g) Kidney [1, 9]: 4.52 %ID/g
Organs (%ID/g) Liver [1, 9]: 10.43 %ID/g
Organs (%ID/g) Brain [1, 10]: 0.56 %ID/g
Organs (%ID/g) Gallbladder [1, 10]: 33.20 %ID/g
Organs (%ID/g) Heart [1, 10]: 3.03 %ID/g
Organs (%ID/g) Kidney [1, 10]: 4.23 %ID/g
Organs (%ID/g) Liver [1, 10]: 9.66 %ID/g
Organs (%ID/g) Brain [1, 11]: 0.52 %ID/g
Organs (%ID/g) Gallbladder [1, 11]: 34.49 %ID/g
Organs (%ID/g) Heart [1, 11]: 2.92 %ID/g
Organs (%ID/g) Kidney [1, 11]: 4.04 %ID/g
Organs (%ID/g) Liver [1, 11]: 9.05 %ID/g
Organs (%ID/g) Brain [1, 12]: 0.49 %ID/g
Organs (%ID/g) Gallbladder [1, 12]: 36.96 %ID/g
Organs (%ID/g) Kidney [1, 12]: 3.71 %ID/g
Organs (%ID/g) Liver [1, 12]: 8.34 %ID/g
Organs (%ID/g) Brain [1, 13]: 0.41 %ID/g
Organs (%ID/g) Gallbladder [1, 13]: 40.92 %ID/g
Organs (%ID/g) Heart [1, 13]: 2.67 %ID/g
Organs (%ID/g) Kidney [1, 13]: 3.30 %ID/g
Organs (%ID/g) Liver [1, 13]: 7.55 %ID/g
Organs (%ID/g) Brain [1, 14]: 0.42 %ID/g
Organs (%ID/g) Gallbladder [1, 14]: 42.68 %ID/g
Organs (%ID/g) Heart [1, 14]: 2.64 %ID/g
Organs (%ID/g) Liver [1, 14]: 6.96 %ID/g
Organs (%ID/g) Brain [1, 15]: 0.39 %ID/g
Organs (%ID/g) Gallbladder [1, 15]: 44.48 %ID/g
Organs (%ID/g) Heart [1, 15]: 2.82 %ID/g
Organs (%ID/g) Kidney [1, 15]: 2.79 %ID/g
Organs (%ID/g) Liver [1, 15]: 6.50 %ID/g
Organs (%ID/g) Brain [1, 16]: 0.42 %ID/g
Organs (%ID/g) Gallbladder [1, 16]: 43.79 %ID/g
Organs (%ID/g) Heart [1, 16]: 2.37 %ID/g
Organs (%ID/g) Kidney [1, 16]: 2.52 %ID/g
Organs (%ID/g) Liver [1, 16]: 5.90 %ID/g
Organs (%ID/g) Brain [1, 17]: 0.37 %ID/g
Organs (%ID/g) Gallbladder [1, 17]: 45.86 %ID/g
Organs (%ID/g) Heart [1, 17]: 2.43 %ID/g
Organs (%ID/g) Kidney [1, 17]: 2.22 %ID/g
Organs (%ID/g) Liver [1, 17]: 5.27 %ID/g
Organs (%ID/g) Brain [1, 18]: 0.37 %ID/g
Organs (%ID/g) Gallbladder [1, 18]: 46.86 %ID/g
Organs (%ID/g) Heart [1, 18]: 2.63 %ID/g
Organs (%ID/g) Liver [1, 18]: 4.83 %ID/g
Organs (%ID/g) Brain [1, 19]: 0.45 %ID/g
Organs (%ID/g) Gallbladder [1, 19]: 41.98 %ID/g
Organs (%ID/g) Heart [1, 19]: 2.11 %ID/g
Organs (%ID/g) Kidney [1, 19]: 1.92 %ID/g
Organs (%ID/g) Liver [1, 19]: 4.51 %ID/g
Organs (%ID/g) Brain [1, 20]: 0.38 %ID/g
Organs (%ID/g) Gallbladder [1, 20]: 39.31 %ID/g
Organs (%ID/g) Heart [1, 20]: 2.28 %ID/g
Organs (%ID/g) Kidney [1, 20]: 1.82 %ID/g
Organs (%ID/g) Liver [1, 20]: 4.27 %ID/g
Organs (%ID/g) Brain [1, 21]: 0.41 %ID/g
Organs (%ID/g) Gallbladder [1, 21]: 36.96 %ID/g
Organs (%ID/g) Heart [1, 21]: 1.96 %ID/g
Organs (%ID/g) Liver [1, 21]: 3.90 %ID/g
Organs (%ID/g) Brain [1, 22]: 0.46 %ID/g
Organs (%ID/g) Gallbladder [1, 22]: 39.06 %ID/g
Organs (%ID/g) Heart [1, 22]: 2.18 %ID/g
Organs (%ID/g) Kidney [1, 22]: 1.65 %ID/g
Organs (%ID/g) Liver [1, 22]: 3.82 %ID/g
Organs (%ID/g) Brain [1, 23]: 0.48 %ID/g
Organs (%ID/g) Gallbladder [1, 23]: 41.97 %ID/g
Organs (%ID/g) Heart [1, 23]: 2.64 %ID/g
Organs (%ID/g) Kidney [1, 23]: 1.59 %ID/g
Organs (%ID/g) Liver [1, 23]: 3.64 %ID/g
SMILES: CC1(C)[C@@H](O)CC[C@]2(C)[C@H]3C(=O)C=C4[C@@H]5C[C@@](C)(C(=O)NCCCC[18F])CC[C@]5(C)CC[C@@]4(C)[C@]3(C)CC[C@@H]12 [[^18F]-GA, [^18F]-Glycyrrhetinic acid]
change in vital signs or electrocardiograms [2]: no change in vital signs or electrocardiograms significantly
